Source: patent US20030225081A1, “Pyridazinones and triazinones and medicinal use thereof” (priority 2000, published 2003)

Columns and labels:
[1] = test system: AMPA receptor; assay: Suppressing action to calcium influx into nerve cells induced by AMPA; type: cell-based; conditions: Fura2-AM, stimulation with 2 μM AMPA, primary culture of rat embryo cerebral cortex nerve cells, 1 μM MK-801
In short: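 Rat E18 cortical neurons grown on astrocyte feeder layers for 8–10 days or more, with 1 μM MK-801 in the medium. Cells were Fura2-AM-loaded for 1 h, then stimulated with 2 μM AMPA in Tyrode containing 1 μM MK-801. Calcium influx was read as the 340/380 nm excitation fluorescence change.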

[2] = test system: convulsion induced by AMPA; assay: Anticonvulsant action induced by AMPA; type: in vivo, mice of ddy strain; conditions: 25 mg/kg orally, mice; AMPA injected into lateral ventricle 30 minutes or 1 hour after administration
Description: Anticonvulsant Action Induced by AMPA A test compound was suspended in a 0.5% methyl cellulose solution or in sesame oil and was orally administered (25 mg/kg) to male mice of ddy strain. After 30 minutes or 1 hour from the oral administration, AMPA was continuously injected ([…]/5 μl/minute/mouse) into lateral ventricle to induce the convulsions. The effect was judged by a time-extending action until the convulsion takes place by a continuous injection of AMPA.

**Q.** What does the source list for `N#Cc1ccccc1-n1nc2c(c(-c3cccnc3)c1=O)COc1ccccc1-2` [Example 9, 2-(2-Cyanophenyl)-4-(3-pyridyl)-2,3-dihydro-5H-(1)benzopyrano[4,3-c]pyridazin-3-one]?
**A.** IC50 [1]: 20 nM; anticonvulsant action (time-extending action until the convulsion takes place) [2]: significantly inhibited the convulsion induced by AMPA

**Q.** Which results are given for `O=C1C(c2ccccc2O)CC(c2ccccn2)=NN1c1ccccc1Br` (centres unmarked) [Example 29, 2-(2-Bromophenyl)-4-(2-hydroxyphenyl)-6-(2-pyridyl)-4,5-dihydro-3 (2H)-pyridazinone]?
**A.** IC50 [1]: 100 nM; anticonvulsant action (time-extending action until the convulsion takes place) [2]: significantly inhibited the convulsion induced by AMPA

**Q.** Which IC50 [1] does the source give for `N#Cc1ccccc1-n1nc(-c2ccccn2)cc(-c2cccnc2)c1=O` [Example 45, 2-(2-Cyanophenyl)-4-(3-pyridyl)-6-(2-pyridyl)-3 (2H)-pyridazinone] here?
**A.** 200 nM

**Q.** What about the “anticonvulsant action (time-extending action until the convulsion takes place)” value (“anticonvulsant action” for short) [2] of the same molecule?
**A.** significantly inhibited the convulsion induced by AMPA

**Q.** For `O=c1c(-c2cccnc2)cc(-c2ccccn2)nn1-c1ccccc1` [Example 59, 2-Phenyl-4-(3-pyridyl)-6-(2-pyridyl)-3 (2H)-pyridazinone], which IC50 [1] is on record?
**A.** 600 nM

**Q.** What about the “anticonvulsant action” value [2] of the same molecule?
**A.** significantly inhibited the convulsion induced by AMPA

**Q.** For `O=C1N(c2ccccc2)CC(c2ccccn2)=NN1c1ccccc1Br` [Example 88, 2-(2-Bromophenyl)-4-phenyl-6-(2-pyridyl)-4,5-dihydro-1,2,4-triazin-3 (2H)-one], which IC50 [1] is on record?
**A.** 100 nM

**Q.** What about the “anticonvulsant action” value [2] of the same molecule?
**A.** significantly inhibited the convulsion induced by AMPA

**Q.** With `COc1ccccc1C1=NN(c2ccccc2C#N)C(=O)N(c2ccccc2)C1` [Example 97, 2-(2-Cyanophenyl)-6-(2-methoxyphenyl)-4-phenyl-4,5-dihydro-1,2,4-triazin-3 (2H)-one] as the molecule, how does the IC50 [1] read?
**A.** 700 nM

**Q.** What about the “anticonvulsant action” value [2] of the same molecule?
**A.** significantly inhibited the convulsion induced by AMPA

**Q.** How did the IC50 [1] turn out when `N#Cc1ccccc1N1N=C(c2ccccn2)CN(c2ccccc2)C1=O` [Example 100, 2-(2-Cyanophenyl)-4-phenyl-6-(2-pyridyl)-4,5-dihydro-1,2,4-triazin-3 (2H)-one] was run?
**A.** 50 nM

**Q.** And the “anticonvulsant action” value [2]?
**A.** significantly inhibited the convulsion induced by AMPA

**Q.** `N#Cc1ccccc1N1N=C(c2ccccn2)CN(c2ccccn2)C1=O` [Example 102, 2-(2-Cyanophenyl)-6-(2-pyridyl)-4-(2-pyridyl)-4,5-dihydro-1,2,4-triazin-3 (2H)-one] was tested. Which IC50 [1] did it give?
**A.** 100 nM

**Q.** What about the “anticonvulsant action” value [2] of the same molecule?
**A.** significantly inhibited the convulsion induced by AMPA

**Q.** `N#Cc1ccccc1N1N=C(c2ccccn2)CN(c2cccnc2)C1=O` [Example 103, 2-(2-Cyanophenyl)-6-(2-pyridyl)-4-(3-pyridyl)-4,5-dihydro-1,2,4-triazin-3 (2H)-one] was tested. Which IC50 [1] did it give?
**A.** 100 nM

**Q.** What about the “anticonvulsant action” value [2] of the same molecule?
**A.** significantly inhibited the convulsion induced by AMPA

**Q.** For `Cc1cccc(N2CC(c3ccccn3)=NN(c3ccccc3Br)C2=O)c1` [Example 124, 2-(2-Bromophenyl)-4-(3-tolyl)-6-(2-pyridyl)-4,5-dihydro-1,2,4-triazin-3 (2H)-one], which IC50 [1] is on record?
**A.** 200 nM

**Q.** For `CSc1ccc(N2CC(c3ccccn3)=NN(c3ccccc3Br)C2=O)cc1` [Example 125, 2-(2-Bromophenyl)-4-(4-thiomethoxyphenyl)-6-(2-pyridyl)-4,5-dihydro-1,2,4-triazin-3 (2H)-one], which IC50 [1] is on record?
**A.** 600 nM

**Q.** For `N#Cc1ccccc1N1N=C(c2ccccn2)CN(c2cccc([N+](=O)[O-])c2)C1=O` [Example 127, 2-(2-Cyanophenyl)-4-(3-nitrophenyl)-6-(2-pyridyl)-4,5-dihydro-1,2,4-triazin-3 (2H)-one], which IC50 [1] is on record?
**A.** 400 nM

**Q.** For `N#Cc1ccccc1N1N=C(c2ccccn2)CN(c2cccc(N)c2)C1=O` [Example 128, 2-(2-Cyanophenyl)-4-(3-aminophenyl)-6-(2-pyridyl)-4,5-dihydro-1,2,4-triazin-3 (2H)-one], which IC50 [1] is on record?
**A.** 100 nM

**Q.** `O=C1N(c2ccccc2)CC(c2ncccn2)=NN1c1ccccc1Cl` [Example 129, 2-(2-Chlorophenyl)-4-phenyl-6-(2-pyrimidinyl)-4,5-dihydro-1,2,4-triazin-3 (2H)-one.] was tested. Which IC50 [1] did it give?
**A.** 3000 nM
